One assay concerns RBL-2H3 cells. The experiment in a line: Inhibition of serotonin liberation from IgE-sensitized RBL-2H3 cells after antigen stimulation. Particulars: Rattus norvegicus; [3H]-serotonin release, IgE-sensitized RBL-2H3 cells, antigen stimulation; read-out: IC50 (μM) in serotonin liberation from RBL-2H3 cells. Format: cell-based, rat. From the text:
IgE-sensitized RBL-2H3 cells (i.e., a cell line originating in rat cells) release and produce not only histamine and serotonin but also cytokines such as TNF α and prostaglandins which are inflammatory mediators after stimulation with IgE sepecific antibody. In this experimental system, inhibitory effects on various mediators release were examined by using serotonin as an indication.
The cells were beforehand labeled with [^3H]-labeled serotonin and, at the same time, sensitized with the IgE antibody. After incubating with the compounds of the present invention, the cells were stimulated with the specific antigen. Then the inhibitory activity of each compound was calculated from the amount of the [^3H]-labeled serotonin thus liberated into the medium and the amount of [^3H]-labeled serotonin liberated when no compound of the present invention was added.

The next assay has as its system human basophils. In words: Inhibition of mediator (histamine, peptide leukotriene) liberation from human basophils stimulated with mite antigen. Format: cell-based. Particulars: enzyme immunoassay. As to the method:
6 ml of 6% dextran (for separating leukocytes, having a high molecular weight) was added to 20 ml of heparinized blood. After stirring well, the resulting mixture was allowed to stand at 37° C. for 30 min and thus erythrocytes were precipitated. The upper layer was taken up and phosphate buffered saline (D-PBS) was added thereto followed by centrifugation at 185 g for 8 minutes to give a crude leukocyte fraction. These cells were subjected to hypotonic hematolysis and then suspended in D-PBS(+) containing 0.1%-BSA. The resulting suspension was used in the subsequent experiment as the leukocyte fraction containing basophils. 0.4 ml of this cell suspension was preliminarily heated to 37° C. for 5 min and then 0.05 ml of a specimen solution was added thereto followed by a pretreatment at 37° C. for 15 min. Next, 0.05 ml of a mite antigen solution was added thereto to induce an antigen-antibody reaction. After 10 min, the reaction was ceased by ice-cooling. Then the reaction mixture was centrifuged at 185 g for 10 min and histamine and peptide leukotrienes in the resulting supernatant were determined by using enzyme immunoassay kits. From the results of the assay, the activities of the acridone derivatives of inhibiting the liberation of histamine and peptide leukotriene were determined.

Setting [1] is: histamine, read-out: IC50 (μM) in mediator liberation from human basophils: histamine.
Where [2] appears, read: peptide leukotriene, read-out: IC50 (μM) in mediator liberation from human basophils: leukotriene.

Where two headings read alike, the source gives them in different places. Bounds are passed on as bounds.

Turning to `Cc1ccc2c(c1C)N(CCCNCc1cccc(OC(C)C)c1O)c1ccccc1[S+]2[O-]` (stereo not drawn) [Example 28], the IC50 in the assay on RBL-2H3 cells is 0.8 µM; in the assay with human basophils (setting [1]) it was 10 to 30 µM; in the assay with human basophils (setting [2]), 3 µM.
In the case of `Cc1ccc2c(c1C)N(CCCNCc1cccc(Cl)c1O)c1ccccc1[S+]2[O-]` (stereo not drawn) [Example 29], the IC50 in the assay on RBL-2H3 cells is 0.8 µM; in the assay on human basophils (setting [1]) it was 10 to 30 µM; in the assay on human basophils (setting [2]), 3 to 10 µM.
Take `Cc1ccc2c(c1C)N(CCCNCc1cccc(Br)c1O)c1ccccc1[S+]2[O-]` (stereo not drawn) [Example 30]: the IC50 in the assay on RBL-2H3 cells was 2 µM; with human basophils (setting [1]), 3 to 10 µM; in the assay on human basophils (setting [2]) it was below 3 µM.
As to `Cc1ccc2c(c1C)N(CCCNCc1ccc(O)c(C(=O)O)c1)c1ccccc1[S+]2[O-]` (stereo not drawn) [Example 32], the IC50 with RBL-2H3 cells is 0.5 µM; in the assay with human basophils (setting [1]), 30 to 100 µM; in the assay with human basophils (setting [2]), 10 to 30 µM.
Regarding `Cc1ccc2c(c1C)N(CCCNCc1cc(O)ccc1O)c1ccccc1[S+]2[O-]` (stereo not drawn) [Example 33], the IC50 in the assay with RBL-2H3 cells is 1 µM; in the assay with human basophils (setting [1]) it was 10 to 30 µM; in the assay with human basophils (setting [2]) it was 10 µM.
Turning to `Cc1ccc2c(c1C)N(CCCNCc1cc(Cl)cc(Cl)c1O)c1ccccc1[S+]2[O-]` (stereo not drawn) [Example 34], the IC50 is 2 µM in the assay on RBL-2H3 cells, 3 to 10 µM in the assay on human basophils (setting [1]) and 3 µM with human basophils (setting [2]).
As to `COCc1cccc(CNCCCN2c3ccccc3[S+]([O-])c3ccc(C)c(C)c32)c1O` (stereo not drawn) [Example 35], the values for the IC50 in the assay with RBL-2H3 cells, in the assay on human basophils (setting [1]) and with human basophils (setting [2]) were 1 µM, 3 µM and 3 to 10 µM, respectively.
With `Cc1ccc2c(c1C)N(CCCNCc1c(O)cccc1O)c1ccccc1[S+]2[O-]` (stereo not drawn) [Example 36], the IC50 was 1 µM with RBL-2H3 cells, 3 to 10 µM in the assay with human basophils (setting [1]) and 3 to 10 µM with human basophils (setting [2]).
As to `Cc1ccc2c(c1C)N(CCCNCc1c(O)ccc(C)c1O)c1ccccc1[S+]2[O-]` (stereo not drawn) [Example 37], the IC50 was 2 µM in the assay with RBL-2H3 cells, 10 to 30 µM in the assay with human basophils (setting [1]) and 3 to 10 µM in the assay with human basophils (setting [2]).
On to `COc1cc(C)c(O)c(CNCCCN2c3ccccc3[S+]([O-])c3ccc(C)c(C)c32)c1O` (stereo not drawn) [Example 39], for which the results for the IC50 with RBL-2H3 cells, with human basophils (setting [1]) and with human basophils (setting [2]) were 2 µM, 10 to 30 µM and 10 to 30 µM, respectively.
Consider `Cc1ccc2c(c1C)N(CCCNCc1cccc(F)c1O)c1ccccc1[S+]2[O-]` (stereo not drawn) [Example 42], for which the figures for the IC50 in the assay with RBL-2H3 cells, in the assay with human basophils (setting [1]) and in the assay on human basophils (setting [2]) were 2 µM, 3 to 10 µM and below 3 µM, respectively.
Consider `COCOc1ccccc1CNCCCN1c2ccccc2[S+]([O-])c2ccc(C)c(C)c21` (stereo not drawn) [Example 44], for which the IC50 was 1 µM in the assay on RBL-2H3 cells, 10 to 30 µM with human basophils (setting [1]) and 10 µM in the assay on human basophils (setting [2]).
The corresponding values for `COc1cccc(OC)c1CNCCCN1c2ccccc2[S+]([O-])c2ccc(C)c(C)c21` (stereo not drawn) [Example 45] are 1 µM, 3 to 10 µM and 3 µM.
Consider `Cc1ccc2c(c1C)N(CCCNCc1ccccc1OCCO)c1ccccc1[S+]2[O-]` (stereo not drawn) [Example 46], for which the IC50 was 0.5 µM with RBL-2H3 cells, 10 to 30 µM in the assay on human basophils (setting [1]) and 10 to 30 µM in the assay on human basophils (setting [2]).
`COCOc1c(CNCCCN2c3ccccc3[S+]([O-])c3ccc(C)c(C)c32)cccc1OC(C)C` (stereo not drawn) [Example 47]: the IC50 is 0.5 µM in the assay on RBL-2H3 cells, 3 to 10 µM with human basophils (setting [1]) and 3 µM in the assay on human basophils (setting [2]).
Turning to `COCOc1c(Cl)cccc1CNCCCN1c2ccccc2[S+]([O-])c2ccc(C)c(C)c21` (stereo not drawn) [Example 48], the IC50 in the assay with RBL-2H3 cells is 0.3 µM; in the assay on human basophils (setting [1]), 3 to 10 µM; in the assay with human basophils (setting [2]) it was 3 µM.
For `Cc1ccc2c(c1C)N(CCCNCc1cccc(N(C)C)c1)c1ccccc1[S+]2[O-]` (stereo not drawn) [Example 49], the IC50 is 2 µM in the assay on RBL-2H3 cells, 10 µM in the assay with human basophils (setting [1]) and 3 to 10 µM in the assay on human basophils (setting [2]).
The corresponding values for `Cc1ccc2c(c1C)N(CCCNCc1ccccc1N(C)C)c1ccccc1[S+]2[O-]` (stereo not drawn) [Example 50] are 2 µM, 30 µM and 10 to 30 µM.
For the compound `Cc1ccc2c(c1C)N(CCCNCc1ccccc1N)c1ccccc1[S+]2[O-]` (stereo not drawn) [Example 51], the IC50 in the assay on RBL-2H3 cells is 2 µM; in the assay on human basophils (setting [1]), 10 to 30 µM; in the assay on human basophils (setting [2]), 10 to 30 µM.
For `Cc1ccc2c(c1C)N(CCCNCc1ccc3c(c1)OCCO3)c1ccccc1[S+]2[O-]` (stereo not drawn) [Example 53], the IC50 in the assay on RBL-2H3 cells is 0.8 µM; with human basophils (setting [1]) it was 30 to 100 µM; in the assay with human basophils (setting [2]), 10 to 30 µM.
Taken in the same sequence, the figures for `Cc1ccc2c(c1C)N(CCCNCc1cccc3c1OCO3)c1ccccc1[S+]2[O-]` (stereo not drawn) [Example 54] were 1 µM, 10 µM and 3 to 10 µM.
On to `Cc1ccc2c(c1C)N(CCCNCc1ccc(C#N)s1)c1ccccc1[S+]2[O-]` (stereo not drawn) [Example 58], for which the values for the IC50 in the assay with RBL-2H3 cells, with human basophils (setting [1]) and in the assay on human basophils (setting [2]) were 2 µM, 10 to 30 µM and 10 to 30 µM, respectively.
On to `Cc1ccc2c(c1C)N(CCCNCc1ccco1)c1ccccc1[S+]2[O-]` (stereo not drawn) [Example 62], for which the IC50 stood at 3 µM with RBL-2H3 cells, 10 µM in the assay on human basophils (setting [1]) and 3 µM in the assay on human basophils (setting [2]).
`COc1ccc(CNCCCN2c3ccccc3[S+]([O-])c3ccc(C)c(C)c32)o1` (stereo not drawn) [Example 64]: the values for the IC50 in the assay with RBL-2H3 cells, with human basophils (setting [1]) and in the assay on human basophils (setting [2]) were 3 µM, 3 to 10 µM and 3 µM, respectively.
On to `Cc1ccc2c(c1C)N(CCCNCc1ccc(CO)o1)c1ccccc1[S+]2[O-]` (stereo not drawn) [Example 65], for which the IC50 with RBL-2H3 cells is 0.5 µM; in the assay with human basophils (setting [1]) it was 30 to 100 µM; in the assay with human basophils (setting [2]), 10 to 30 µM.
For the compound `COc1ccsc1CNCCCN1c2ccccc2[S+]([O-])c2ccc(C)c(C)c21` (stereo not drawn) [Example 66], the IC50 in the assay with RBL-2H3 cells is 0.5 µM; in the assay on human basophils (setting [1]), below 3 µM; with human basophils (setting [2]) it was below 3 µM.
Regarding `COc1ccc(CNCCCN2c3ccccc3[S+]([O-])c3ccc(C)c(C)c32)s1` (stereo not drawn) [Example 67], the IC50 in the assay on RBL-2H3 cells was 1 µM; in the assay with human basophils (setting [1]), 10 to 30 µM; in the assay on human basophils (setting [2]), 10 to 30 µM.
As to `Cc1ccc2c(c1C)N(CCCNCc1[nH]cnc1-c1ccccc1)c1ccccc1[S+]2[O-]` (stereo not drawn) [Example 69], the IC50 in the assay on RBL-2H3 cells is 1 µM; in the assay with human basophils (setting [1]), 10 µM; in the assay with human basophils (setting [2]), 3 to 10 µM.
Take `COc1csc(CNCCCN2c3ccccc3[S+]([O-])c3ccc(C)c(C)c32)c1` (stereo not drawn) [Example 73]: the figures for the IC50 with RBL-2H3 cells, in the assay with human basophils (setting [1]) and in the assay with human basophils (setting [2]) were 2 µM, 3 to 10 µM and 3 to 10 µM, respectively.
With `Cc1ccc2c(c1C)N(CCCNCc1ccccc1)c1ccc(Cl)cc1[S+]2[O-]` (stereo not drawn) [Example 80], the figures for the IC50 in the assay with RBL-2H3 cells, with human basophils (setting [1]) and in the assay with human basophils (setting [2]) were 1 µM, 10 µM and 3 to 10 µM, respectively.
For `COc1ccsc1CNCCCN1c2ccc(Cl)cc2[S+]([O-])c2ccc(C)c(C)c21` (stereo not drawn) [Example 81], the IC50 in the assay with RBL-2H3 cells was 1 µM; in the assay with human basophils (setting [1]), 10 to 30 µM; in the assay on human basophils (setting [2]), 3 to 10 µM.
The corresponding values for `Cc1ccc2c(c1C)N(CCCNCc1ccccc1)c1cccc(Cl)c1[S+]2[O-]` (stereo not drawn) [Example 82] are 2 µM, 3 to 10 µM and 10 to 30 µM.
`COc1ccsc1CNCCCN1c2cccc(Cl)c2[S+]([O-])c2ccc(C)c(C)c21` (stereo not drawn) [Example 83]: the IC50 was 2 µM in the assay with RBL-2H3 cells, 10 µM with human basophils (setting [1]) and 10 to 30 µM with human basophils (setting [2]).
Take `Cc1ccc2c(c1C)N(CCCNCc1ccccc1)c1cc(Cl)ccc1[S+]2[O-]` (stereo not drawn) [Example 84]: the values for the IC50 in the assay on RBL-2H3 cells, with human basophils (setting [1]) and in the assay on human basophils (setting [2]) were 2 µM, below 3 µM and below 3 µM, respectively.
As for `COc1ccsc1CNCCCN1c2cc(Cl)ccc2[S+]([O-])c2ccc(C)c(C)c21` (stereo not drawn) [Example 85], the IC50 in the assay on RBL-2H3 cells was 3 µM; in the assay on human basophils (setting [1]), 3 µM; with human basophils (setting [2]), 10 to 30 µM.

The values are drawn from patent publication US6703388B2, “Nitrogen-containing tricyclic compounds and drugs containing the same” (Eisai Co., Ltd., priority 1996, dated 2004).
